Experimental data reported in ChEMBL document CHEMBL5550129, “Optimization of benzenesulfonyl derivatives as anti-Trypanosomatidae agents: Structural design, synthesis, and pharmacological assessment against Trypanosoma cruzi and Leishmania infantum” (Bioorg Med Chem, 2024).

Experiments:
[1] = tested on: Trypanosoma cruzi; test: Antitrypanosomal activity against Trypanosoma cruzi Tulahuen expressing Escherichia coli beta-galactosidase infected in L929 cells pretreated with parasite for 50 hrs followed by compound addition and measured after 96 hrs; format: functional, organism-based
[2] = tested on: Leishmania infantum; test: Antileishmanial activity against Leishmania infantum MHOM/BR/1974/PP75 expressing red fluorescence protein infected in THP-1 cells pre-infected for 4 hrs followed by compound addition and measured after 72 hrs by microplate reader assay; format: functional, organism-based; conditions: MHOM/BR/1974/PP75, THP-1
[3] = tested on: Trypanosoma cruzi; test: Antitrypanosomal activity against Trypanosoma cruzi; format: functional, organism-based
[4] = Cytotoxicity against mouse L929 cells; format: toxicity, cell-based
[5] = Selectivity index, ratio of CC50 for mouse L929 cells to IC50 for Trypanosoma cruzi; format: toxicity; conditions: read-out: Ratio CC50/IC50
[6] = tested on: Leishmania infantum; test: Antileishmanial activity against Leishmania infantum; format: functional, organism-based
[7] = tested on: Leishmania braziliensis; test: Antileishmanial activity against Leishmania braziliensis; format: functional, organism-based
[8] = Cytotoxicity against human THP-1 cells; format: toxicity, cell-based
[9] = Selectivity index, ratio of CC50 for human THP-1 cells to IC50 for Leishmania infantum; format: toxicity; conditions: read-out: Ratio CC50/IC50
[10] = Selectivity index, ratio of CC50 for human THP-1 cells to IC50 for Leishmania braziliensis; format: toxicity; conditions: read-out: Ratio CC50/IC50
[11] = Cytotoxicity against human THP-1 cells incubated for 72 hrs by Alamar blue assay; format: toxicity, cell-based
[12] = Cytotoxicity against mouse L929 cells incubated for 96 hrs by Alamar blue assay; format: toxicity, cell-based
[13] = Selectivity index, ratio of CC50 for mouse L929 cells to IC50 for Trypanosoma cruzi Tulahuen expressing Escherichia coli beta-galactosidase infected in L929 cells; format: toxicity; conditions: read-out: Ratio CC50/IC50
[14] = Selectivity index, ratio of CC50 for human THP-1 cells to IC50 for Leishmania infantum MHOM/BR/1974/PP75 expressing red fluorescence protein infected in THP-1 cells; format: toxicity, cell-based; conditions: read-out: Ratio CC50/IC50
[15] = tested on: Leishmania braziliensis; test: Antileishmanial activity against Leishmania braziliensis MHOM/BR/75/M2904 expressing red fluorescence protein infected in THP-1 cells pre-infected for 4 hrs followed by compound addition and measured after 72 hrs by microplate reader assay; format: functional, organism-based; conditions: MHOM/BR/75/M2904, THP-1
[16] = Selectivity index, ratio of CC50 for human THP-1 cells to IC50 for Leishmania braziliensis MHOM/BR/75/M2904 expressing red fluorescence protein infected in THP-1 cells; format: toxicity, cell-based; conditions: read-out: Ratio CC50/IC50

Structure (SMILES)	IC50 [1]	IC50 [2]	CC50 at 72 h [11]	CC50 at 96 h [12]	selectivity ratio [13]	selectivity ratio [14]	IC50 [15]	further results
O=S(=O)(c1ccc(F)cc1)N1CCN(c2ccccc2)CC1	> 200 µM	> 100 µM						
O=S(=O)(c1ccc(Cl)cc1)N1CCNCC1								IC50 [3]: 3.7 µM; CC50 [4]: 227 µM; selectivity ratio [5]: 61; IC50 [6]: 5 µM; IC50 [7]: 4.5 µM; CC50 [8]: 1250 µM; selectivity ratio [9]: > 250; selectivity ratio [10]: > 250
Nc1ccc(C(=O)N2CCN(S(=O)(=O)c3ccc(Cl)cc3)CC2)cc1	> 200 µM	> 100 µM	> 1000 µM					
CN(C)CCOc1ccc(N2CCN(S(=O)(=O)c3ccccc3)CC2)cc1	28 µM	> 100 µM	650 µM	91.2 µM	3	< 7		
CN(C)CCNc1ccc(C(=O)N2CCN(S(=O)(=O)c3ccc(Cl)cc3)CC2)cn1	65.9 µM	35.7 µM	388 µM	395 µM	6	11		
N#Cc1ccc(C(=O)N2CCN(S(=O)(=O)c3ccc(Cl)cc3)CC2)cc1	> 200 µM	36.4 µM	> 1000 µM					
COc1ccc(OC)c(S(=O)(=O)N2CCN(c3ccc(OCCN(C)C)cc3)CC2)c1	13.4 µM	29.6 µM	141 µM	274 µM	20	5	29.6 µM	selectivity ratio [16]: 5
CN(C)CCOc1ccc(N2CCN(S(=O)(=O)c3ccccc3Br)CC2)cc1	3.7 µM	43.3 µM	161 µM	10 µM	3	4		
O=C(c1ccc(-n2cnnn2)cc1)N1CCN(S(=O)(=O)c2ccc(Cl)cc2)CC1	145 µM	35.9 µM	> 1000 µM					
CN(C)CCOc1cccc(C(=O)N2CCN(S(=O)(=O)c3ccc(Cl)cc3)CC2)c1	137 µM	0.6 µM					4.4 µM	
CN(C)CCOc1ccc(N2CCN(C(=O)c3ccc(Cl)cc3)CC2)cc1	4.3 µM	37.5 µM	> 1000 µM	339 µM	79	> 27		
COc1ccc(S(=O)(=O)N2CCN(c3ccc(OCCN(C)C)cc3)CC2)cc1	7.1 µM	25.1 µM	388 µM	354 µM	50	16	70.5 µM	selectivity ratio [16]: 6
CN(C)CCOc1ccc(N2CCN(S(=O)(=O)c3ccc([N+](=O)[O-])cc3)CC2)cc1	1.7 µM	62.9 µM	343 µM	302 µM	178	6		
Cc1ccc(S(=O)(=O)N2CCN(c3ccc(OCCN(C)C)cc3)CC2)cc1	2.2 µM	> 100 µM	298 µM	289 µM	136	< 3		
N#CCOc1ccc(C(=O)N2CCN(S(=O)(=O)c3ccc(Cl)cc3)CC2)cc1	108 µM	0.8 µM	371 µM			453	0.7 µM	selectivity ratio [16]: 516
NCCOc1ccc(C(=O)N2CCN(S(=O)(=O)c3ccc(Cl)cc3)CC2)cc1	> 200 µM	> 100 µM	911 µM					
CN(C)CCOc1cccc(N2CCN(S(=O)(=O)c3ccc(Cl)cc3)CC2)c1	137 µM	4.6 µM	170 µM			37	41.7 µM	selectivity ratio [16]: 4
O=C(c1ccc(N2CCNCC2)nc1)N1CCN(S(=O)(=O)c2ccc(Cl)cc2)CC1	9.8 µM	> 100 µM	253 µM	18 µM	2	< 3		
N#CCOc1ccc(N2CCN(S(=O)(=O)c3ccc(Cl)cc3)CC2)cc1	7.2 µM	23.3 µM	46.6 µM		71	2	40.3 µM	selectivity ratio [16]: 1
O=C(c1ccc([N+](=O)[O-])cc1)N1CCN(S(=O)(=O)c2ccc(Cl)cc2)CC1	> 200 µM	48.8 µM	> 1000 µM			> 20		
CN(C)CCOc1ccc(N2CCN(S(=O)(=O)c3ccc(N)cc3)CC2)cc1	168 µM	55.2 µM	> 1000 µM			> 11		
CN(C)CCOc1ccc(C(=O)N2CCN(S(=O)(=O)c3ccc(Cl)cc3)CC2)cc1	13.8 µM	0.9 µM	> 1000 µM	345 µM	25	> 2460	1.4 µM	selectivity ratio [16]: > 714
CN(C)CCOc1ccc(N2CCN(S(=O)(=O)c3ccc(Br)cc3)CC2)cc1	8.3 µM	> 100 µM	283 µM	> 427 µM	> 57	< 3		
CN(C)CCOc1ccc(N2CCN(S(=O)(=O)c3ccc(F)cc3)CC2)cc1	6.4 µM	6.1 µM	> 1000 µM	374 µM	58	> 405	21 µM	selectivity ratio [16]: 48
CC(=O)Nc1ccc(S(=O)(=O)N2CCN(c3ccc(OCCN(C)C)cc3)CC2)cc1	187 µM	> 100 µM	> 1000 µM					
CN(C)CCOc1ccccc1C(=O)N1CCN(S(=O)(=O)c2ccc(Cl)cc2)CC1	> 200 µM	10.3 µM	> 500 µM			> 49	7.2 µM	selectivity ratio [16]: > 69.5
COc1ccc(Cl)cc1S(=O)(=O)N1CCN(c2ccc(OCCN(C)C)cc2)CC1	12.6 µM	> 100 µM	73.9 µM	148 µM	12	< 1		
